# Patent publication US20250134853A1, “COMPOUNDS AND METHODS FOR USING GALLOYLATED POLYPHENOLS TO TREAT DISEASES MEDIATED BY THIOL ISOMERASES” (Beth Israel Deaconess Medical Center, Inc., priority 2023, published 2025)
# Entries after “also recorded” stand apart in the source; their conditions may differ.
# Tests used:
# [1] = tested on: SARS-CoV-2; conditions: cited from earlier work
# [2] = tested on: recombinant PDI, ERp57, and ERp5; experiment: Di-eosin-GSSG assay, thiol isomerases at 20 μM compound; type: biochemical; conditions: 15 minute incubation
# [3] = tested on: PDI domain fragments (a, a′, ab, abb′, b′xa′); experiment: Di-eosin-GSSG assay on isolated PDI domain fragments; type: biochemical; conditions: 20 μM
# Procedure: (§1) Di-eosin-GSSG disulfide reductase assay. The probe di-eosin glutathione disulfide, di-eosin-GSSG, was prepared by incubating 100 μM of GSSG with 1 mM of eosin isothiocyanate in 100 mM potassium phosphate containing 2 mM EDTA (pH 7.4), at 25° C. overnight in the dark. The mixture was passed down a PD-10 column and different fractions were collected. A fold change of fluorescence (Ex: 520 nm, Em: 550 nm) was calculated using samples subjected to either vehicle or 20 mM of DTT. Any fraction with a fold change >5 was kept. Using a stock of 10 mM eosin isothiocyanate, a standard curve was generated and concentration of samples were determined accordingly. Di-eosin-GSSG cleavage of purified thiol isomerases and PDI domains was monitored in a 96-well fluorescence plate format. PDI, CGXC-PDI variants, ERp5, ERp57, ERp46 and PDI domains were assayed at 50 nM in the presence or absence of the indicated small molecules. The assay included a thiol isomerase assay buffer (39 mM KH2PO4, 61 mM K2HPO4, 2 mM EDTA, 5 M DTT, pH 7.4) and 150 nM of the di-eosin-GSSG probe. The increase in fluorescence was determined for 60 min by excitation at 520 nm and emission at 550 nm in a Synergy Biotek 4. The reduction of 150 nM di-eosin-GSSG by 5 μM DTT in the presence or absence of mentioned small molecule or proteins served as a negative control.
# [4] = tested on: platelets; conditions: cited from earlier work
# [5] = biological target: T1, SARS-CoV-2 M^pro (Severe acute respiratory syndrome coronavirus 2, UniProt P0DTD1); conditions: literature values (Table 2); read-out: SARS-CoV-2 M^pro inhibition; cited from earlier work
# [6] = biological target: T2, PDI (Homo sapiens, UniProt P07237); experiment: Di-eosin-GSSG disulfide reductase assay, PDI; type: biochemical; conditions: Table 1; IC50 curves on PDI activity (FIGS. 13B-E, 17A-E); read-out: Relative PDI inhibition
# T2 construct: FLAG; made in house; host or cells: Escherichia coli Origami B (DE3)
# Procedure: as §1
# [7] = biological target: T2, PDI; experiment: Insulin reductase assay; type: biochemical; conditions: 20 μM
# Procedure: Insulin reductase assay. Insulin was prepared by mixing 12.5 mg/mL insulin in 50 mM Tris-HCl, pH 8. 1 M HCl was carefully added to drop the pH to 2.0 for solution clarification. Once the solution clarifies, 1 M NaOH was added to rapidly adjust the pH back to 8.0. The solution was then adjusted to 1.5 mM (10 mg/mL) with 50 mM Tris-HCl, aliquoted and stored in −20° C. until use. 2× concentrations of thiol isomerases were prepared (final concentrations as indicated in each assay) and mixed with 1.2 mM DTT (final 0.3 mM) and 0.4 mM insulin (final 0.1 mM) using a thiol isomerase activity assay buffer. Insulin precipitation from enzyme-mediated reduction was assayed in 96-well clear bottom plates at 650 nm absorption.
# [8] = biological target: T1, SARS-CoV-2 M^pro; conditions: cited from earlier work
# T2 sequence (P07237 18-508): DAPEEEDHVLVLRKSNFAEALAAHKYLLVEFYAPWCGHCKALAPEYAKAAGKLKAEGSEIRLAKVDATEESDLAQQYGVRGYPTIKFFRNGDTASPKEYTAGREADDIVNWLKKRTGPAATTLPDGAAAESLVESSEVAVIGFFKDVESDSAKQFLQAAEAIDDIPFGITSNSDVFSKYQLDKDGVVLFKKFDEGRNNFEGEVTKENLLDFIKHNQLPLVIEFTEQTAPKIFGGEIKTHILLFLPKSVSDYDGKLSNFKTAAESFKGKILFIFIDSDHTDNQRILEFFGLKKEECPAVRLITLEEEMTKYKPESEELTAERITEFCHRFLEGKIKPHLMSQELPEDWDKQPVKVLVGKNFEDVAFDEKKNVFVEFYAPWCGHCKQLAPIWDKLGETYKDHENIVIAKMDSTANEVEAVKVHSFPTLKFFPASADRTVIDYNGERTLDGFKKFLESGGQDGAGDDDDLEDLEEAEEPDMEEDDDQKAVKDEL
substance,measurement,setting,value
"1,2,3,4,6-pentagalloylglucose [Pentagalloyl-glucose]",IC50,"[1]; Vero Cells, read-out: Inhibition of viral replication IC50",15 µM
same,inhibition of SARS-CoV-2 / infection (in words),[1],inhibits SARS-CoV-2 viral infection in culture
same,"inhibition of thiol isomerases (PDI, ERp57, ERp5) in words",[2],potently inhibited all thiol isomerases tested
same,inhibition of isolated a′ domain cleavage of di-eosin-GSSG,[3],inhibited the ability of isolated a′ domain to cleave di-eosin-GSSG
same,antiplatelet activities,[4],have antiplatelet activities
same,IC50,[5],25 µM
same,IC50,[6],2900 nM
same,inhibition of the ability of PDI to reduce insulin,[7],inhibited the ability of PDI to reduce insulin
same,Modeling shows gallic acid interaction with His41 or Glu166,[8],occludes His41;; also recorded: reacts with Glu166
